Laboratory results as given in ChEMBL document CHEMBL3137667, “[Drug-induced liver injury; fourteenth updated edition of the bibliographic database of liver injuries and related drugs]” (Gastroenterol Clin Biol, 2004).
*1 amine or outer side, *2 acyl side, *3 side chain or, on linkers, in order; H or OH if unused. Where a SMILES comes first, the peptide text is derived from it. Bridges are numbered along the chain shown (N, C = ends). [ ]: non-standard residue; d: D form. The star is where a group is joined. ξ: configuration not given here. X2 = N=C1NCCC([C@H](N[*:1])C(=O)[*:2])N1; ΔAla(Z-3-ureido) = NC(=O)N/C=C(\N)C(=O)O; ξβ3hOrn = NCCCC(N)CC(=O)*; Dap = NC[C@H](N)C(=O)O

Experiments:
[1] = Highest frequency of moderate liver toxicity observed during clinical trials, expressed as a percentage. [column '% BIOL' in source]; conditions: human
[2] = human
[3] = human, serum
[4] = human, serum; remark: listed apart in the source
[5] = human; remark: listed apart in the source
[6] = human; remark: listed apart in the source
[7] = human; remark: listed apart in the source
[8] = human, serum, 4383 h
[9] = human; remark: listed apart in the source
[10] = human; remark: listed apart in the source
[11] = human; remark: listed apart in the source
[12] = Highest frequency of acute liver toxicity observed during clinical trials, expressed as a percentage. [column '% AIGUE' in source]; conditions: human
[13] = human; remark: listed apart in the source
[14] = human; remark: listed apart in the source
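Wherever Hepatotoxicity (association with vascular disease) is given: count of indexed literature references reporting vascular liver injury in humans, e.g. peliosis hepatitis, hepatic veno-occlusive disease or Budd-Chiari syndrome.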
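Wherever Hepatotoxicity (benign tumour) is given: value is a count of indexed literature references citing a benign tumour confirmed by histopathology.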
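Wherever Hepatotoxicity (choleostasis) is given: human cholestatic liver injury, shown by histopathology or by peak ALT or AST elevation over alkaline phosphatase ratio below 2, value counts indexed literature reports.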
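Wherever Hepatotoxicity (chronic liver disease) is given: chronic liver injury confirmed by histopathology or persistently raised serum aminotransferase activity beyond 6 months, value given as the count of indexed literature references.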
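Wherever Hepatotoxicity (cirrhosis) is given: value is a count of indexed literature references reporting cirrhosis confirmed by histopathology.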
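Wherever Hepatotoxicity (cytolytic) is given: human cytolytic liver injury, shown by histopathology or by a ratio above 5 of peak ALT or AST elevation to alkaline phosphatase elevation, value counts indexed references.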
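Wherever Hepatotoxicity (granulomatous hepatitis) is given: value is a count of indexed literature references reporting granulomatous liver disease confirmed by histopathology.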
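Wherever Hepatotoxicity (malignant tumour) is given: malignant tumour confirmed by histopathology, value gives the count of indexed literature references reporting it.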
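Wherever Hepatotoxicity (severe hepatitis) is given: human clinical data: severe hepatitis, meaning potentially life-threatening liver failure or clinically observed cases, the value counts how many indexed literature references report it.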
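Wherever Hepatotoxicity (steatosis) is given: steatosis confirmed by histopathology, value is the count of indexed references.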

Row | SMILES | Hepatotoxicity (moderate) [1] | Hepatotoxicity (cytolytic) [2] | Hepatotoxicity (acute) [3] | Hepatotoxicity (moderate) [4] | Hepatotoxicity (granulomatous hepatitis) [5] | Hepatotoxicity (benign tumour) [6] | Hepatotoxicity (association with vascular disease) [7] | Hepatotoxicity (chronic liver disease) [8] | Hepatotoxicity (malignant tumour) [9] | Hepatotoxicity (choleostasis) [10] | Hepatotoxicity (steatosis) [11] | Hepatotoxicity (acute) [12] | Hepatotoxicity (severe hepatitis) [13] | Hepatotoxicity (cirrhosis) [14] | Hepatotoxicity (moderate) ([1]; Liver) | Hepatotoxicity (cytolytic) ([2]; Liver) | Hepatotoxicity (granulomatous hepatitis) ([5]; Liver) | Hepatotoxicity (choleostasis) ([10]; Liver) | Hepatotoxicity (acute) ([12]; Liver) | Hepatotoxicity (severe hepatitis) ([13]; Liver)
1 | NS(=O)(=O)c1cc2c(cc1C(F)(F)F)NC(Cc1ccccc1)NS2(=O)=O (configuration not stated) [BENDROFLUMETHIAZIDE] | 0% | 0 | 1 | 0 | 0 | 0 | 0 | 0 | 0 | 0 | 0 | 0% | 0 | 0 |  |  |  |  |  | 
2 | O=C(Cn1ccnc1[N+](=O)[O-])NCc1ccccc1 [BENZNIDAZOLE] | 0% | 0 | 1 | 0 | 0 | 0 | 0 | 0 | 0 | 0 | 0 | 0% | 0 | 0 |  |  |  |  |  | 
3 | CC#CCC(C)[C@H](O)/C=C/[C@@H]1[C@H]2c3cccc(CCCC(=O)O)c3O[C@H]2C[C@H]1O (some centres not stated) [BERAPROST] | 13% | 0 | 0 | 1 | 0 | 0 | 0 | 0 | 0 | 0 | 0 | 0% | 0 | 0 |  |  |  |  |  | 
4 | C[C@H]1C[C@H]2[C@@H]3CCC4=CC(=O)C=C[C@]4(C)[C@@]3(F)[C@@H](O)C[C@]2(C)[C@@]1(O)C(=O)CO [BETAMETHASONE] | 0% | 0 | 0 | 0 | 0 | 0 | 0 | 0 | 0 | 0 | 1 | 0% | 0 | 0 |  |  |  |  |  | 
5 | C[C@@H](O)[C@H]1C(=O)N2C(C(=O)[O-])=C(SC3Cn4cnc[n+]4C3)[C@H](C)[C@H]12 (some centres not stated) [BIAPENEM] | 40% | 0 | 0 | 56 | 0 | 0 | 0 | 0 | 0 | 0 | 0 | 0% | 0 | 0 |  |  |  |  |  | 
6 | C(=N\NC1=NCCN1)/c1c2ccccc2c(/C=N/NC2=NCCN2)c2ccccc12 [BISANTRENE] | 49% | 0 | 1 | 4 | 0 | 0 | 0 | 0 | 0 | 1 | 0 | 0% | 0 | 0 |  |  |  |  |  | 
7 | CC(C)NCC(O)COc1ccc(COCCOC(C)C)cc1 (configuration not stated) [BISOPROLOL] | 7.1% | 0 | 0 | 3 | 0 | 0 | 0 | 0 | 0 | 0 | 0 | 0% | 0 | 0 |  |  |  |  |  | 
8 | CN(Cc1cc(Br)cc(Br)c1N)C1CCCCC1 [BROMHEXINE] | 0% | 0 | 0 | 1 | 0 | 0 | 0 | 0 | 0 | 0 | 0 | 0% | 0 | 0 |  |  |  |  |  | 
9 | Nc1nc(-c2ccccc2)c(Br)c(=O)[nH]1 [BROPIRIMINE] |  |  | 0 | 1 |  | 0 | 0 | 0 | 0 |  | 0 |  |  | 0 | 3.1% | 0 | 0 | 0 | 0% | 0
10 | CCC/C=C/C=C/C(=O)O[C@H]1/C(=C/C(=O)OC)C[C@H]2C[C@H]([C@@H](C)O)OC(=O)C[C@H](O)C[C@@H]3C[C@H](OC(C)=O)C(C)(C)[C@](O)(C[C@@H]4C/C(=C/C(=O)OC)C[C@H](/C=C/C(C)(C)[C@]1(O)O2)O4)O3 [BRYOSTATIN 1] | 16.7% | 0 | 1 | 2 | 0 | 0 | 0 | 0 | 0 | 1 | 0 | 8.3% | 0 | 0 |  |  |  |  |  | 
11 | CC(C)C[C@H](NC(=O)[C@H](CCCCN)NC(=O)CNC(=O)[C@H](CC(C)C)NC(=O)[C@@H](NC(=O)[C@@H]1CSSC[C@H](N)C(=O)N[C@@H](CO)C(=O)N[C@@H](CC(N)=O)C(=O)N[C@@H](CC(C)C)C(=O)N[C@@H](CO)C(=O)N[C@@H]([C@@H](C)O)C(=O)N1)C(C)C)C(=O)N[C@@H](CO)C(=O)N[C@@H](CCC(N)=O)C(=O)N[C@@H](CCC(=O)O)C(=O)N[C@@H](CC(C)C)C(=O)N[C@@H](Cc1c[nH]cn1)C(=O)N[C@@H](CCCCN)C(=O)N[C@@H](CC(C)C)C(=O)N[C@@H](CCC(N)=O)C(=O)N[C@H](C(=O)N[C@@H](Cc1ccc(O)cc1)C(=O)N1CCC[C@H]1C(=O)N[C@@H](CCCNC(=N)N)C(=O)N[C@H](C(=O)N[C@@H](CC(N)=O)C(=O)N[C@H](C(=O)NCC(=O)N[C@@H](CO)C(=O)NCC(=O)N[C@H](C(=O)N1CCC[C@H]1C(N)=O)[C@@H](C)O)[C@@H](C)O)[C@@H](C)O)[C@@H](C)O [CALCITONIN SALMON] | 3.1% | 0 | 0 | 1 | 0 | 0 | 0 | 0 | 0 | 0 | 0 | 0% | 0 | 0 |  |  |  |  |  | 
12 | CCCCCOC(=O)Nc1nc(=O)n([C@@H]2O[C@H](C)[C@@H](O)[C@H]2O)cc1F [CAPECITABINE] | 61.8% | 0 | 0 | 1 | 0 | 0 | 0 | 0 | 0 | 0 | 0 | 0% | 0 | 0 |  |  |  |  |  | 
13 | C[C@@H]1NC(=O)[C@@H](N)CNC(=O)[C@H](C2CCNC(=N)N2)NC(=O)/C(=C/NC(N)=O)NC(=O)[C@H](CNC(=O)CC(N)CCCN)NC1=O.N=C1NCCC([C@@H]2NC(=O)/C(=C/NC(N)=O)NC(=O)[C@H](CNC(=O)CC(N)CCCN)NC(=O)[C@H](CO)NC(=O)[C@@H](N)CNC2=O)N1 (stereo partly drawn) [CAPREOMYCIN] (H-[Dap]S[Dap](ξβ3hOrn)[ΔAla(Z-3-ureido)][X2]; lactam 1-C) | 0% | 0 | 0 | 3 | 0 | 0 | 0 | 0 | 0 | 0 | 0 | 0% | 0 | 0 |  |  |  |  |  | 
